Test results taken from patent publication US20200079765A1, “SUBSTITUTED HETEROARYL PYRROLONES AND SALTS THEREOF AND USE THEREOF AS HERBICIDAL ACTIVE SUBSTANCES” (Bayer CropScience Aktiengesellschaft, priority 2016, published 2020).

What was measured:
Format in all cases: in vivo
Abutilon theophrasti [1] = experiment: Post-emergence herbicidal action (Experimental Part 1, A); conditions: about 3 weeks after treatment, 100% = plants have died, 0% = like control plants
Experimental: (§1) Seeds of monocotyledonous and dicotyledonous weeds and crop plants were placed in sandy loam in plastic or wood-fiber pots, covered with soil and cultivated in a greenhouse under controlled growth conditions. 2 to 3 weeks after sowing, the test plants were treated at the one-leaf stage. The compounds of the invention, formulated in the form of wettable powders (WP) or as emulsion concentrates (EC), were then sprayed onto the green parts of the plants as aqueous suspension or emulsion with addition of 0.5% additive at a water application rate of 600 l/ha (converted). After the test plants had been kept in the greenhouse under optimum growth conditions for about 3 weeks, the activity of the preparations was rated visually in comparison to untreated controls. For example, 100% activity=the plants have died, 0% activity=like control plants. Tables A1 to A14 below show the effects of selected compounds of the general formula (I) according to Tables I.1 to I.116 on various harmful plants and an application rate corresponding to 1280 g/ha or 320 g/ha, which were obtained by the experimental procedure mentioned above.

Alopecurus myosuroides [2] = experiment: as above; conditions: about 3 weeks after treatment, 100% = plants have died, 0% = like control plants
Experimental: as §1

Amaranthus retroflexus [3] = experiment: as above; conditions: about 3 weeks after treatment, 100% = plants have died, 0% = like control plants
Experimental: as §1

Avena fatua [4] = experiment: as above; conditions: rated visually after about 3 weeks
Experimental: as §1

Echinochloa crus-galli [5] = experiment: as above; conditions: about 3 weeks after treatment, 100% = plants have died, 0% = like control plants
Experimental: as §1

Hordeum murinum [6] = experiment: as above; conditions: application rate 1280 g/ha, rated visually after about 3 weeks
Experimental: as §1

Ipomoea purpurea [7] = experiment: as above; conditions: application rate 1280 g/ha, rated visually after about 3 weeks
Experimental: as §1

Lolium rigidum [8] = experiment: as above; conditions: application rate 1280 g/ha, rated visually after about 3 weeks
Experimental: as §1

Matricaria inodora [9] = experiment: as above; conditions: rated visually after about 3 weeks
Experimental: as §1

Polygonum convolvulus [10] = experiment: as above; conditions: rated visually after about 3 weeks
Experimental: as §1

Setaria viridis [11] = experiment: as above; conditions: about 3 weeks after treatment, 100% = plants have died, 0% = like control plants
Experimental: as §1

Stellaria media [12] = experiment: as above; conditions: rated visually after about 3 weeks
Experimental: as §1

Veronica persica [13] = experiment: as above; conditions: application rate 1280 g/ha, about 3 weeks after treatment, 100% = plants have died, 0% = like control plants
Experimental: as §1

Viola tricolor [14] = experiment: as above; conditions: rated visually after about 3 weeks
Experimental: as §1

Abutilon theophrasti [15] = experiment: Pre-emergence herbicidal action (Experimental Part 1, B); conditions: scored visually after about 3 weeks
Description: (§2) Seeds of monocotyledonous and dicotyledonous weed plants and crop plants were placed in plastic or organic planting pots and covered with soil. The compounds of the invention, formulated in the form of wettable powders (WP) or as emulsion concentrates (EC), were then applied onto the surface of the covering soil as aqueous suspension or emulsion with addition of 0.5% additive at a water application rate of 600 l/ha (converted). After the treatment, the pots were placed in a greenhouse and kept under good growth conditions for the test plants. After about 3 weeks, the effect of the preparations was scored visually in comparison with untreated controls as percentages. For example, 100% activity=the plants have died, 0% activity=like control plants. Tables B1 to B14 below show the effects of selected compounds of the general formula (I) according to Tables I.1 to I.116 on various harmful plants and an application rate corresponding to 1280 g/ha or 320 g/ha, which were obtained by the experimental procedure mentioned above.

Alopecurus myosuroides [16] = experiment: as above; conditions: scored visually after about 3 weeks
Description: as §2

Amaranthus retroflexus [17] = experiment: as above; conditions: scored visually after about 3 weeks
Description: as §2

Avena fatua [18] = experiment: as above; conditions: scored visually after about 3 weeks
Description: as §2

Echinochloa crus-galli [19] = experiment: as above; conditions: application rate 1280 g/ha, scored visually after about 3 weeks
Description: as §2

Hordeum murinum [20] = experiment: as above; conditions: scored visually after about 3 weeks
Description: as §2

Ipomoea purpurea [21] = experiment: as above; conditions: application rate 1280 g/ha, scored visually after about 3 weeks
Description: as §2

Lolium rigidum [22] = experiment: as above; conditions: application rate 1280 g/ha, scored visually after about 3 weeks
Description: as §2

Matricaria inodora [23] = experiment: as above; conditions: scored visually after about 3 weeks
Description: as §2

Polygonum convolvulus [24] = experiment: as above; conditions: scored visually after about 3 weeks
Description: as §2

Setaria viridis [25] = experiment: as above; conditions: scored visually after about 3 weeks
Description: as §2

Stellaria media [26] = experiment: as above; conditions: scored visually after about 3 weeks
Description: as §2

Veronica persica [27] = experiment: as above; conditions: application rate 1280 g/ha, scored visually after about 3 weeks
Description: as §2

Viola tricolor [28] = experiment: as above; conditions: scored visually after about 3 weeks
Description: as §2

SMILES: CC(=O)OC1C(C)=CC(=O)N1c1cc(C(C)(C)C)on1 (stereo not drawn) [I.3-162]
- herbicidal activity on Abutilon theophrasti (visual rating vs untreated controls) (Abutilon theophrasti [1]; application rate 320 g/ha): 100%
- herbicidal activity on Abutilon theophrasti (visual rating vs untreated controls) (Abutilon theophrasti [1]; application rate 1280 g/ha): 100%
- herbicidal activity on Alopecurus myosuroides (visual rating vs untreated controls) (Alopecurus myosuroides [2]; application rate 320 g/ha): 100%
- herbicidal activity on Alopecurus myosuroides (visual rating vs untreated controls) (Alopecurus myosuroides [2]; application rate 1280 g/ha): 100%
- herbicidal activity on Amaranthus retroflexus (visual rating vs untreated controls) (Amaranthus retroflexus [3]; application rate 320 g/ha): 90%
- herbicidal activity on Amaranthus retroflexus (visual rating vs untreated controls) (Amaranthus retroflexus [3]; application rate 1280 g/ha): 100%
- Avena fatua, herbicidal activity (Avena fatua [4]; application rate 320 g/ha): 90%
- Avena fatua, herbicidal activity (Avena fatua [4]; application rate 1280 g/ha): 90%
- herbicidal activity on Echinochloa crus-galli (visual rating vs untreated controls) (Echinochloa crus-galli [5]; application rate 320 g/ha): 90%
- herbicidal activity on Echinochloa crus-galli (visual rating vs untreated controls) (Echinochloa crus-galli [5]; application rate 1280 g/ha): 100%
- Hordeum murinum, herbicidal activity (Hordeum murinum [6]): 100%
- Ipomoea purpurea, herbicidal activity (Ipomoea purpurea [7]): 90%
- Lolium rigidum, herbicidal activity (Lolium rigidum [8]): 90%
- Matricaria inodora, herbicidal activity (Matricaria inodora [9]; application rate 320 g/ha): 100%
- Matricaria inodora, herbicidal activity (Matricaria inodora [9]; application rate 1280 g/ha): 100%
- Polygonum convolvulus, herbicidal activity (Polygonum convolvulus [10]; application rate 320 g/ha): 100%
- Polygonum convolvulus, herbicidal activity (Polygonum convolvulus [10]; application rate 1280 g/ha): 100%
- herbicidal activity on Setaria viridis (visual rating vs untreated controls) (Setaria viridis [11]; application rate 320 g/ha): 100%
- herbicidal activity on Setaria viridis (visual rating vs untreated controls) (Setaria viridis [11]; application rate 1280 g/ha): 100%
- Stellaria media, herbicidal activity (Stellaria media [12]; application rate 320 g/ha): 100%
- Stellaria media, herbicidal activity (Stellaria media [12]; application rate 1280 g/ha): 100%
- herbicidal activity on Veronica persica (visual rating vs untreated controls) (Veronica persica [13]): 100%
- Viola tricolor, herbicidal activity (Viola tricolor [14]; application rate 320 g/ha): 100%
- Viola tricolor, herbicidal activity (Viola tricolor [14]; application rate 1280 g/ha): 100%
- Abutilon theophrasti, herbicidal activity (Abutilon theophrasti [15]; application rate 320 g/ha): 100%
- Abutilon theophrasti, herbicidal activity (Abutilon theophrasti [15]; application rate 1280 g/ha): 100%
- Alopecurus myosuroides, herbicidal activity (Alopecurus myosuroides [16]; application rate 320 g/ha): 90%
- Alopecurus myosuroides, herbicidal activity (Alopecurus myosuroides [16]; application rate 1280 g/ha): 90%
- Amaranthus retroflexus, herbicidal activity (Amaranthus retroflexus [17]; application rate 320 g/ha): 100%
- Amaranthus retroflexus, herbicidal activity (Amaranthus retroflexus [17]; application rate 1280 g/ha): 100%
- Avena fatua, herbicidal activity (Avena fatua [18]; application rate 320 g/ha): 90%
- Avena fatua, herbicidal activity (Avena fatua [18]; application rate 1280 g/ha): 90%
- Echinochloa crus-galli, herbicidal activity (Echinochloa crus-galli [19]): 100%
- Hordeum murinum, herbicidal activity (Hordeum murinum [20]; application rate 320 g/ha): 90%
- Hordeum murinum, herbicidal activity (Hordeum murinum [20]; application rate 1280 g/ha): 100%
- Ipomoea purpurea, herbicidal activity (Ipomoea purpurea [21]): 90%
- Lolium rigidum, herbicidal activity (Lolium rigidum [22]): 90%
- Matricaria inodora, herbicidal activity (Matricaria inodora [23]; application rate 320 g/ha): 100%
- Matricaria inodora, herbicidal activity (Matricaria inodora [23]; application rate 1280 g/ha): 100%
- Polygonum convolvulus, herbicidal activity (Polygonum convolvulus [24]; application rate 320 g/ha): 100%
- Polygonum convolvulus, herbicidal activity (Polygonum convolvulus [24]; application rate 1280 g/ha): 100%
- Setaria viridis, herbicidal activity (Setaria viridis [25]; application rate 320 g/ha): 100%
- Setaria viridis, herbicidal activity (Setaria viridis [25]; application rate 1280 g/ha): 100%
- Stellaria media, herbicidal activity (Stellaria media [26]; application rate 320 g/ha): 90%
- Stellaria media, herbicidal activity (Stellaria media [26]; application rate 1280 g/ha): 100%
- Veronica persica, herbicidal activity (Veronica persica [27]): 100%
- Viola tricolor, herbicidal activity (Viola tricolor [28]; application rate 320 g/ha): 100%
- Viola tricolor, herbicidal activity (Viola tricolor [28]; application rate 1280 g/ha): 100%
